The series in a line: Dissolution of monomer components in mesitylene to prepare a coating liquid. It counts as physicochemical. On the procedure:
In 100 g of mesitylene were dissolved 2.48 g (8 mmol) of trimethyl ester of 1,3,5-adamantanetricarboxylic acid prepared in Example 1 and 6.42 g (12 mmol) of 3,3′-diaminobenzidinetetracyclohexanoimine [N,N′,N″,N′″-tetracyclohexylidene-3,4,3′,4′-biphenyltetramine] prepared in Preparation Example 1 at room temperature in a nitrogen atmosphere, to yield a coating liquid having a monomer concentration of 8.2% by weight. After filtrating through a filter with a pore size of 0.1 μm, the coating liquid was applied to an 8-inch silicon wafer by spin coating. This was heated at 300° C. in a nitrogen atmosphere for 30 minutes and was then heated at 400° C. for further 30 minutes, to form a film. The infrared absorption spectrum of the resulting polymer film was determined. The result is shown in FIG. 1, verifying that the target crosslinked polybenzazole film was formed.
A coating liquid was prepared by the procedure of Example • 7, except using equal amounts of • 1,3,5-adamantanetricarboxylic acid and • 3,3′-diaminobenzidine instead of trimethyl ester of • 1,3,5-adamantanetricarboxylic acid and • N,N′,N″,N′″-tetracyclohexylidene-3,4,3′,4′-biphenyltetramine, respectively. […] The infrared absorption spectrum of the resulting polymer film was determined, verifying that the target crosslinked polybenzazole film was formed.

Where two headings read alike, the source gives them in different places.

On to `O=C(O)C12CC3CC(C(=O)O)(C1)CC(C(=O)O)(C3)C2` [1,3,5-adamantanetricarboxylic acid], for which the “solubility in the solvent (mesitylene)” value is given as “not sufficiently dissolved”. Turning to `Nc1ccc(-c2ccc(N)c(N)c2)cc1N` [3,3′-diaminobenzidine], under “procedure of Example 7: 8 mmol acid and 12 mmol amine together in 100 g mesitylene, room temperature, nitrogen atmosphere”, the “solubility in the solvent (mesitylene)” value was “not sufficiently dissolved”.
